Counter-ions that a name gives are not always drawn. Like-named read-outs stand apart in the source and are kept apart here.
Legend:
Parameters in all cases: species or system AML cell lines (8); Primary HTS, single concentration about 10 uM, Cell Titer Glo viability; log10 luminescence, per cent inhibition relative to cycloheximide control
Settings in all cases: 72 h, relative to cycloheximide control, log10 luminescence, inhibitor
CHRF288-11 = tested on: CHRF288-11
MV4-11 = tested on: MV4-11
CMS = tested on: CMS
U937 = tested on: U937
M07e = tested on: M07e
MOLM-13 = tested on: MOLM-13
CMK = tested on: CMK
ML-2 = tested on: ML-2

SMILES	CHRF288-11 %inh (CHRF288-11) [%]	MV4-11 %inh (MV4-11) [%]	CMS %inh (CMS) [%]	U937 %inh (U937) [%]	M07e %inh (M07e) [%]	MOLM-13 %inh (MOLM-13) [%]	CMK %inh (CMK) [%]	ML-2 %inh (ML-2) [%]	CHRF288-11 %inh (CHRF288-11; CHRF288-11 %inh, 10 µM) [%]	MV4-11 %inh (MV4-11; MV4-11 %inh, 10 µM) [%]	CMS %inh (CMS; CMS %inh, 10 µM) [%]	U937 %inh (U937; U937 %inh, 10 µM) [%]	M07e %inh (M07e; M07e %inh, 10 µM) [%]	MOLM-13 %inh (MOLM-13; MOLM-13 %inh, 10 µM) [%]	CMK %inh (CMK; CMK %inh, 10 µM) [%]	ML-2 %inh (ML-2; ML-2 %inh, 10 µM) [%]
CCCc1cc(=O)[nH]c(=S)[nH]1 [SJ000286145-4, PROPYLTHIOURACIL]	1.792	0.3408	-1.815	-0.4734	2.631	-0.9508	-4.099	1.023								
C[C@]12CCC(=O)C=C1CC[C@@H]1[C@@H]2[C@@H](O)C[C@@]2(C)[C@H]1CC[C@]2(O)C(=O)COP(=O)(O)O [SJ000286156-3, HYDROCORTISONE SODIUM PHOSPHATE]	4.933	-4.752	-1.283	5.176	0.6039	15.41	0.9258	0.191								
CCCCCCCCCCCCCCCCOP(=O)([O-])OCC[N+](C)(C)C [SJ000286181-3, MILTEFOSINE]	1.656	-0.6681	-1.205	-1.059	2.383	1.005	-1.001	-0.1071								
CN(C)C(=O)Oc1ccc[n+](C)c1 [SJ000286222-6, PYRIDOSTIGMINE BROMIDE]	-1.775	-1.282	-3.618	1.718	2.078	-2.128	-7.252	1.797								
CC(=O)O[C@]1(C(C)=O)CC[C@H]2[C@@H]3C=C(Cl)C4=CC(=O)[C@@H]5C[C@@H]5[C@]4(C)[C@H]3CC[C@@]21C [SJ000286483-6, CYPROTERONE ACETATE]	-0.8844	2.562	2.38	1.732	0.443	-1.163	-1.818	-2.366								
CCCCC1=NC2(CCCC2)C(=O)N1Cc1ccc(-c2ccccc2-c2nnn[nH]2)cc1 [SJ000286674-2, IRBESARTAN]	1.638	1.017	-2.028	-0.5514	0.4149	17.32	0.3545	1.25								
CC(C)=CCC/C(C)=C/CC/C(C)=C/CO [SJ000286702-2, FARNESOL]	-1.355	-0.08153	-1.627	-0.4236	1.694	-0.6204	-1.858	1.139								
C[C@H](CS)C(=O)N1CCC[C@H]1C(=O)O [SJ000286908-7, CAPTOPRIL]									0.04975	2.877	0.1894	2.172	3.365	2.932	-2.127	-0.2844
C[C@H](CS)C(=O)N1CCC[C@H]1C(=O)O [SJ000286908-8, CAPTOPRIL]									4.869	-2.616	-1.291	-1.359	-2.045	0.1339	0.6591	-1.462
C[C@H](CS)C(=O)N1CCC[C@H]1C(=O)O [SJ000286908-9, CAPTOPRIL]									-5.11	1.577	0.9516	-2.673	0.8569	-1.689	-4.021	-0.6374
C[C@H](CS)C(=O)N1CCC[C@H]1C(=O)O [SJ000286908-10, CAPTOPRIL]									-3.972	-0.07613	-3.33	51.26	-1.533	0.8092	3.343	-0.772
C[C@H](CS)C(=O)N1CCC[C@H]1C(=O)O [SJ000286908-11, CAPTOPRIL]									-3.474	-2.697	-1.329	-18.23	0.3888	1.337	-6.202	-1.011
C[C@H](CCC(=O)O)[C@H]1CC[C@H]2[C@@H]3CC[C@@H]4C[C@H](O)CC[C@]4(C)[C@H]3CC[C@]12C [SJ000286918-3, LITHOCHOLIC ACID]	7.532	1.619	2.61	0.7056	1.09	2.496	-0.09844	1.903								
CC1(C)O[C@@H]2C[C@H]3[C@@H]4CCC5=CC(=O)CC[C@]5(C)[C@@]4(F)[C@@H](O)C[C@]3(C)[C@]2(C(=O)CCl)O1 [SJ000286948-3, HALCINONIDE]	0.4115	4.793	6.83	10.5	-3.04	15.68	7.614	2.814								
CCCC(CCC)C(=O)O [SJ000287008-5, VALPROATE SODIUM | VALPROIC ACID SODIUM | DIVALPROEX SODIUM | SODIUM VALPROATE | ABBOTT-44090 | NIK-313 | NIK-317 | VALPROATE SODIUM | VALPROIC ACID SODIUM SALT | | SODIUM VALPROATE | VALPROATE SODIUM | VALPROIC ACID SODIUM SALT | ABBOTT-44090 | NIK-313 | NIK-317 | | SODIUM VALPROATE | VALPROIC ACID SODIUM SALT (SODIUM VALPROATE)]									8.896	-0.02212	1.675	-1.54	-4.206	-1.216	-3.296	0.7854
CCCC(CCC)C(=O)O [SJ000287008-6, VALPROATE SODIUM | VALPROIC ACID SODIUM | DIVALPROEX SODIUM | SODIUM VALPROATE | ABBOTT-44090 | NIK-313 | NIK-317 | VALPROATE SODIUM | VALPROIC ACID SODIUM SALT | | SODIUM VALPROATE | VALPROATE SODIUM | VALPROIC ACID SODIUM SALT | ABBOTT-44090 | NIK-313 | NIK-317 | | SODIUM VALPROATE | VALPROIC ACID SODIUM SALT (SODIUM VALPROATE)]									0.5614	-1.147	-1.126	-3.41	-0.5439	-2.019	-3.672	-1.422
CC1(C)O[C@@H]2C[C@H]3[C@@H]4C[C@H](F)C5=CC(=O)C=C[C@]5(C)[C@@]4(F)[C@@H](O)C[C@]3(C)[C@]2(C(=O)CO)O1 [SJ000287016-2, FLUOCINOLONE ACETONIDE]	4.658	1.404	9.034	7.141	-0.198	1.204	-1.286	2.188								
C[C@]12CCC(=O)C=C1CC[C@@H]1[C@@H]2C(=O)C[C@@]2(C)[C@H]1CC[C@]2(O)C(=O)CO [SJ000287023-7, CORTISONE]	8.551	-0.1807	-0.2521	-1.735	-0.4313	-2.413	-2.132	-0.1775								
CCOC(=O)[C@H](CCc1ccccc1)N[C@@H](C)C(=O)N1[C@H](C(=O)O)C[C@@H]2CCC[C@@H]21 [SJ000287048-3]	-4.815	3.659	-0.1854	1.846	-2.965	-1.2	1.362	-0.556								
